According to patent US20130243720A1, “Iron(II)-Containing A Treatments for Hyperphosphatemia” (priority 2006, published 2013):

Tested on: Sprague Dawley (SD) rats
Experiment: Effects of compounds for reducing urinary phosphate levels in rats fed treatment diet
Assay type: in vivo, rat
Conditions: male SD rats; for Urinary Phosphate: urine collected on days 5 and 6
Procedure: House male Sprague Dawley (SD) rats were used for the experiments. The rats were placed singly in wire-bottom cages, fed with Purina 5002 diet, and allowed to acclimate for at least 5 days prior to experimental use.
To establish baseline phosphorus excretion, the rats were placed in metabolic cages for 48 hours. Their urine was collected and its phosphorus content analyzed with a Hitachi analyzer to determine phosphorus excretion in mg/day. Any rats with outlying values were excluded; and the remainder of the rats was distributed into groups.
Purina 5002 was used as the standard diet. The compound or compound mixture being tested was mixed with Purina 5002 to result in a final concentration 0.5% (or as indicated in the table) by weight. Cellulose at 0.5% by weight was used as a negative control. For each rat, 200 g of diet was prepared.
Each rat was weighed and placed on the standard diet. After 4 days the standard diet was replaced with the treatment diet (or control diet for the control group). On days 5 and 6, urine samples from the rats at 24 hours (+/−30 minutes) were collected and analyzed. The test rats were again weighed, and any weight loss or gain was calculated. Any remaining food was also weighed to calculate the amount of food consumed per day. A change in phosphorus excretion relative to baseline and cellulose negative control was calculated using Excel program.

[1] = 0.5% of diet, urinary phosphorus excretion relative to baseline and cellulose negative control
[2] = compound mixed with Purina 5002 diet at 0.5% by weight

Molecule	% Control [1]	Urinary Phosphate [2]	% Control (0.30% of diet, relative to baseline and cellulose negative control)	Urinary Phosphate (0.30% of diet)	% Control (0.5% of diet, urinary phosphorus excretion relative to baseline and cellulose negative control, listed as Iron(II) Acetate)	% Control (0.7% of diet, relative to baseline and cellulose negative control)	Urinary Phosphate (0.7% of diet)	Urinary Phosphate (compound mixed with Purina 5002 diet at 0.5% by weight, listed as Iron(II) Acetate)
O=C([O-])C(=O)[O-].[Fe+2] [Iron(II) oxalate, iron(II) oxalate]	89.0%	14.8 mg/day						
[Fe+2].[O-2] [Iron(II)oxide, iron(II) oxide]	104.3%	20.2 mg/day						
CC(=O)[O-].CC(=O)[O-].[Fe+2] [Iron(II) acetate, iron(II) acetate]	65.9%	12.8 mg/day	67.4%	12.1 mg/day	69.1%	44.4%	8.0 mg/day	12.4 mg/day
(+)-iron(II) L-ascorbate	78.6%	13.4 mg/day						
CC(=O)/C=C(/C)O.CC(=O)/C=C(/C)O.[Fe] [Fe(II) acetylacetonato]	55.6%	10.4 mg/day						
